Data published in PubChem BioAssay (NCI).
Several values for one entry are separate records, joined by “and”; a condition that tells them apart may be missing. Identical values can stand only once.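 Dose response: 5 concentrations. Exposure: 48 h. Format: 96-well plates. Endpoint: linear interpolation; highest concentration if not reached. At the GI50, growth is halved. TGI denotes the concentration required for complete inhibition of growth.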

Key:
Test in all cases: growth of human tumour cells (NCI), 48 h
HL-60(TB) leukemia = test system: HL-60(TB) leukemia
NCI-H522 lung = test system: NCI-H522 lung
SF-295 CNS = test system: SF-295 CNS
M14 melanoma = test system: M14 melanoma
SF-539 CNS = test system: SF-539 CNS
U251 CNS = test system: U251 CNS
UACC-62 melanoma = test system: UACC-62 melanoma
A498 renal = test system: A498 renal
HT29 colon = test system: HT29 colon
NCI/ADR-RES ovarian = test system: NCI/ADR-RES ovarian

Compound	GI50 (HL-60(TB) leukemia) [µM]	TGI (HL-60(TB) leukemia) [µM]	GI50 (NCI-H522 lung) [µM]	TGI (NCI-H522 lung) [µM]	GI50 (SF-295 CNS) [µM]	TGI (SF-295 CNS) [µM]	GI50 (M14 melanoma) [µM]	TGI (M14 melanoma) [µM]	GI50 (SF-539 CNS) [µM]	TGI (SF-539 CNS) [µM]	GI50 (U251 CNS) [µM]	TGI (U251 CNS) [µM]	GI50 (UACC-62 melanoma) [µM]	TGI (UACC-62 melanoma)	GI50 (A498 renal) [µM]	TGI (A498 renal)	GI50 (HT29 colon) [µM]	TGI (HT29 colon) [µM]	GI50 (NCI/ADR-RES ovarian) [µM]	TGI (NCI/ADR-RES ovarian) [µM]
O=[N+]([O-])C1C(c2ccccc2)C12c1ccccc1-c1ccccc12 (stereo not given)	2.12	> 100	0.68	13	0.598	43.9	0.789	23.7	1.31	9	1.03	14	0.544	15.6 µM	0.316	3.83 µM	0.349	15.5	0.657	> 23.7
Cc1c2c(nn1-c1ccc(S(=O)(=O)NC(=S)Nc3ccccc3)cc1)-c1ccccc1CC2	> 50	> 50	21.5	> 50	> 50	> 50	> 50	> 50	> 50	> 50	39.6	> 50	> 50	> 50 µM	–	–	> 50	> 50	> 50	> 50
Nc1nc(SCc2ccccn2)c2ncn(C3CCCC3)c2n1	–	> 100	–	> 100	–	> 100	–	> 100	–	–	–	> 100	–	> 100 µM	–	> 100 µM	–	> 100	–	> 100
COc1cc(C2C=C(c3cccc(NC(C)=O)c3)Nc3ncnn32)cc(OC)c1OC (stereo not given)	0.443	2.28	1.49	> 100	0.229	> 32.8	0.392	> 100	0.367	2	0.395	> 100	0.262	> 100 µM	0.242	4.67 µM	1.38	> 100	8.04	63.7
C=C1C(=O)O[C@H]2[C@H]1CC/C(COC(=O)c1cc3cc(F)ccc3[nH]1)=C\CC[C@@]1(C)O[C@@H]21	2.07	9.27	1.66	3.38	7.1	21.6	1.89	4.11	1.55	3.19	1.82	3.57	1.89	3.79 µM	3.35	8.96 µM	1.13	3.14	1.98	5.39
O=C(NNc1nc(Cl)nc(N2CCN(C(c3ccccc3)c3ccccc3)CC2)n1)c1ccccc1	2.15	6.26	–	–	10.8	23.1	1.59	3.12	1.73	3.15	1.69	3.13	1.72	3.29 µM	3.55	18.8 µM	1.92	4.07	2.08	4.41
COc1cccc(C2CC(C)(N3CCCC3)Oc3cc4c(cc32)OCO4)c1O (stereo not given)	–	> 54.2	–	47.2	–	59.6	–	> 83.8	–	46.1	–	77.4	–	> 90.1 µM	–	> 100 µM	–	45.3	–	62.4
N#Cc1c(-c2nc3ccccc3s2)c(=O)oc2cc(O)ccc12	–	66.5	–	> 100	–	> 100	–	> 100	–	> 100	–	> 100	–	> 100 µM	–	> 100 µM	–	> 100	–	> 100
CCOc1cc2ncc(C#N)c(Nc3ccc(OCc4cccc(F)c4)c(Cl)c3)c2cc1NC(=O)CC1CCSS1 (stereo not given)	3.48	> 25	> 6.9	> 25	> 25	> 25	0.45	0.915	2.28	> 25	> 6.88	> 25	> 25	> 25 µM	> 25	> 25 µM	0.907	> 25	> 25	> 25
COc1cc(/C(C#N)=C/c2ccc3c(c2OC)OCO3)cc2c1OCO2	0.0314	0.922	0.0324	0.283	0.0428	4.36	0.0477	7.81	0.0964	2.29	0.11	14	0.0531	22.3 µM	0.051	0.785 µM	0.0379	1.04	0.0346	0.381
COc1ccc(N=C2CSc3nnc(-c4cc(F)c(Cl)cc4Cl)n3N2)cc1	0.331	0.636	0.296	0.885	0.347	2.08	0.572	8.27	1.05	2.63	0.497	10.8	0.576	23.2 µM	1.54	13 µM	0.395	2.11	2.96	> 100
N#Cc1cn(C2OC(CO)C(O)C2O)c2ncnc(N)c12 (stereo not given)	0.045	–	0.0293	–	< 0.0193	–	–	21.9	–	–	0.0276	–	< 0.0136	0.156 µM and 0.0603 µM and 0.115 µM	0.045	1.51 µM and 0.634 µM	< 0.01	–	0.0459	–
COc1cc([C@H]2c3cc4c(cc3O[C@@]3(O)COC(=O)[C@@H]23)OCO4)cc(OC)c1OC	–	> 100	–	> 100	–	> 100	–	> 100	–	> 100	–	> 100	–	> 100 µM	–	> 100 µM	–	> 100	–	> 100
O=C(CCCCCCSc1nc(-c2ccccc2)cc(-c2ccc(Cl)cc2)n1)NO	2.16	4.84	1.13	8.05	2.45	6.7	1.95	6.53	1.84	5.31	1.59	4.08	1.37	3.5 µM	1.4	4.09 µM	2.05	11.4	0.596	8.84
O=P(O)(CCP(=O)(O)c1ccccc1)c1ccccc1	–	> 100	–	> 100	–	> 100	–	> 100	–	> 100	–	> 100	–	> 100 µM	–	> 100 µM	–	> 100	–	> 100
O=C(Oc1ccc(Cl)cc1Cl)c1ccccc1Nc1ccnc(C(F)(F)F)c1	6.63	> 100	4.61	36	15.6	37.2	1.92	4.93	3.77	12	–	–	2.29	7.06 µM	21.5	37.3 µM	–	–	3.66	11.7
N#Cc1c(Sc2ccccc2N)cccc1Sc1ccccc1N	16.4	–	51.7	–	84	–	62.6	–	69.7	–	35.6	–	14.7	–	–	–	63.4	–	15.4	38.4
COc1ccc2nc(N/N=C(\C)c3ccccn3)cc(C)c2c1	0.384	7.01	0.292	1.88	0.0487	0.391	0.212	1.13	0.269	1.23	0.261	1.28	0.275	1.01 µM	0.812	7.02 µM	0.116	–	0.274	–
CNC(=O)c1cc(OC2CCC(NC(=O)Nc3ccc(Cl)c(C(F)(F)F)c3)CC2)ccn1 (stereo not given)	11.7	50.2	4.16	16.9	4.95	26.6	5.47	20.6	12	29.6	6.81	23.4	5.41	19.4 µM	8.14	22.1 µM	4.25	16.2	5.67	44.3
Cc1ccc(CNc2c3ccccc3nc3ccccc23)cc1	2.2	5.07	1.67	4.75	2.53	8.87	1.53	3.24	1.57	3.01	2.65	10.4	1.75	4.1 µM	1.21	2.92 µM	2.08	10.7	1.74	5.35
C=C1CC2(OC1=O)C(=O)N(CCCCCCCN1C(=O)C3(CC(=C)C(=O)O3)c3ccccc31)c1ccccc12 (stereo not given)	0.992	3.21	0.82	1.85	10.2	25	1.45	5.6	1.26	4.27	5.81	12.4	1.27	4.82 µM	5.17	13.1 µM	1.49	5.4	1.68	8.78
COc1cc2c3c(n(C)c(=O)c2cc1OC)-c1cc2c(cc1/C3=C\CCCCCN)OCO2	2.92	21.9	1.23	> 100	0.887	> 42.4	2.55	> 46.6	1.96	14.8	1.56	16.7	2.56	25.3 µM	10.6	39.4 µM	1.17	> 100	2.6	> 48.8
CC(=O)n1c(COS(C)(=O)=O)nc2ccccc21	–	–	–	> 100	–	> 100	–	> 100	–	> 100	–	> 100	–	> 100 µM	–	> 100 µM	–	> 100	–	> 100
ClCc1cccc(Cn2cnc3c(Cl)ncnc32)c1	–	–	18.6	65.4	3.25	8.68	1.66	3.31	20.1	35.3	1.8	3.48	1.82	3.4 µM	17.3	31.9 µM	3.25	> 100	2.43	7.62
COc1ccc(-c2nc3sc(C)cn3c2/C=C/C(=O)c2cc(OC)c(OC)c(OC)c2)cc1	2.49	7.48	0.88	3.14	4.42	> 100	3.97	> 100	4.28	> 100	4.04	> 100	2.82	> 100 µM	–	–	3.95	> 100	2.8	8.11
Cc1cc(-c2ncc(CC(=O)Nc3ccc(-c4cnccn4)cn3)cc2C)ccn1	39.3	> 100	22.7	> 100	15.3	> 100	–	–	26.1	> 100	24.6	> 100	22.1	> 100 µM	2.8	65.5 µM	57.8	> 100	17.6	> 100
N#CCC1COc2ccccc2O1 (stereo not given)	–	> 10	–	> 10	–	> 10	–	> 10	–	> 10	–	> 10	–	> 10 µM	–	–	–	> 10	–	> 10
COC(=O)N[C@H]1CCc2c(Br)c(OC)c(OC)c(OC)c2-c2ccc(SC)c(=O)cc21	< 0.01	< 0.01	< 0.01	1.22	–	–	< 0.01	8.53	< 0.01	< 0.01	< 0.01	15	< 0.01	18 µM	< 0.01	< 0.01 µM	< 0.01	18.8	0.0179	–
COc1ccc2c(c1)/C(=C\c1c(C)nc3sc(C)cn13)C(=O)N2C	–	–	2.54	8.44	2.25	6.88	4.99	61.1	1.91	6.63	3.69	31.2	1.69	10 µM	–	–	3.27	19.2	1.32	4.04
